The values below come from US20250325553A1, “METHODS OF TREATING CANCER” (FOGHORN THERAPEUTICS INC., priority 2022, published 2025).

Like-named read-outs stand apart in the source and are kept apart here.

Data set [1] is described as follows: Population PK model of orally administered Compound A patient data. It counts as in vivo, human. How it is done: A population PK model based on orally administered Compound A dosing data in a total of 10 patients with metastatic uveal melanoma (UM) and advanced hematologic malignancies (e.g., acute myeloid leukemia (AML)) was performed.
Nonlinear mixed-effects models were fitted to concentration vs. time data of FHD-286. Various compartmental models with linear elimination (1-, 2- and 3-compartment), absorption models, structures of omega on clearances, volumes and absorption parameters (diagonal and block) were developed to assess the PK of Compound A.
Overall, a two-compartment model with linear elimination, a zero-order oral absorption, and a lag time of absorption adequately characterized the concentration-time profiles of Compound A.
Exploratory analysis of covariate effects was performed with appropriate plots presenting relationships between the ETAs (e.g., values reflecting the difference between and individual's parameter value and that of the population) of PK parameters to identify any remaining covariate trends. […] Therefore a “Multiple Dose Effect” on CL was included in the model to account for this change over time.
No other covariates were included as part of the model.

For data set [2], the system named is metastatic uveal melanoma. Put plainly: Phase 1 dose escalation clinical trial, tumor response. The class given is in vivo, human. The settings on record: 2.5-10 mg QD oral, 17 subjects with metastatic uveal melanoma. How it is done: (§1) A Phase 1 dose escalation clinical trial of Compound A is conducted. The trial is primarily intended to determine the maximum tolerated dose (MTD) and/or recommended phase 2 dose of the compound when administered orally to subjects with metastatic uveal melanoma.
(§2) In this ongoing study, Compound A has been administered at dose levels of 2.5 mg once a day (QD), 5 mg QD, 7.5 mg QD, and 10 mg QD to 17 subjects with metastatic uveal melanoma.

Data set [3] is described as follows: Phase 1 dose escalation clinical trial, preliminary pharmacokinetics. It counts as in vivo. To be noted: preliminary PK analysis. Here is the method: as §1, §2
Data set [4] deals with subjects with metastatic uveal melanoma. Put plainly: Phase 1 dose escalation clinical trial, dose limiting toxicity. It counts as in vivo. To be noted: one subject treated at the 7.5 mg dose; improved with a dose hold. How it is done:
as §1, §2

As to `COC[C@H](NC(=O)c1ccn(S(C)(=O)=O)c1)C(=O)Nc1nc(-c2cccc(N3C[C@@H](C)O[C@@H](C)C3)n2)cs1` [Compound A, N-(1-((4-(6-(2,6-dimethylmorpholino)pyridin-2-yl)thiazol-2-yl)amino)-3-methoxy-1-oxopropan-2-yl)-1-(methylsulfonyl)-1H-pyrrole-3-carboxamide], the “clearance (CL) over time” value in data set [1] (after multiple doses) is given as “reduction in clearance”. Further, in data set [1] (final PK model parameter), the “Vc, Estimate” value is 54.6 L. Moreover, the “Tlag, Estimate” value in data set [1] (final PK model parameter, lag time of absorption) is recorded as 0.452 h. In data set [1] (final PK model parameter, zero-order oral absorption, two-compartment model, 10 patients (UM, AML)), the “Dur, Estimate” value is 1.77 h. Also, the clearance is 67.8 mL/min in data set [1] (human, in vivo, oral, final PK model parameter, linear elimination, read-out: CL, Estimate (converted)) and 510 mL/min in data set [1] (human, in vivo, oral, final PK model parameter, read-out: CLp, Estimate (converted)). Besides, in data set [1] (human, in vivo, oral, final PK model parameter, read-out: Vd, Estimate), the Vd is 165 L. In addition, the tumor response entry in data set [2] was “Stable disease and reductions in tumor burden”. Further, the half-life result in data set [3] (oral 2.5, 5, 7.5, 10 mg QD, subjects with metastatic uveal melanoma) is “long half-life”. In addition, the “plasma concentrations of the compound” value in data set [3] (oral 2.5-10 mg QD dose levels) was “increase with increasing dose”. The dose limiting toxicity entry in data set [4] was “Grade 3 keratitis”.
